Data on 16 compounds can be found in patent US9862724B2, “Pyrazolo[1,5-a]pyrimidine-based compounds, compositions comprising them, and methods of their use” (LEXICON PHARMACEUTICALS, INC., priority 2013, dated 2018).

Where two headings read alike, the source gives them in different places. Some results are limits rather than exact numbers.

Test [1] deals with T1, AAK1 (full-length human protein) (Homo sapiens, UniProt Q2M2I8).
T1 construct: NP_055726.2
Nature of the test: P81 filter plate assay. The note with it: 0.2 nM 2x AAK1, Mu2 substrate, 33P-ATP. The test is classed as biochemical. How it is done:
Compounds were serially diluted into a Labcyte LDV plate (Labcyte, cat# LP-0200) using a Mutiprobe (PerkinElmer) and Biomek FX (Beckman Coulter) so that the highest compound concentration was at 96 μM. Compounds were then pinged (75 nL per well) into a Greiner 384-well reaction plate (Greiner, #781076) using an ECHO 550 Liquid Handler (Labcyte). A total of 12 μl reaction buffer (IMAP buffer containing Tween and DTT, from Molecular Devices) was then added to each well of columns 1 and 13 for the negative controls and 12 μl of 2×AAK1 (0.2 nM full-length human protein, NCBI accession no. NP_055726.2) was added to the remaining wells. Enzyme was then pre-incubated with compound for 10 minutes at RT. Reactions were initiated upon Minitrak (PerkinElmer) addition of 12 μl substrate mix containing 2×Mu2 (0.2 μM, full length human protein), 2× cold ATP (2 μM), and 1.3 μCi of hot ^33P-ATP. Reactions proceeded for one hour at RT. Meanwhile, Millipore 384-well P81 filter plates (Millipore, catalog # MZPHN0W10) were placed on a plate washer (Zoom ZW, from Titertek) and pre-wet with 50 μl […] phosphoric acid. Kinase reactions were then stopped upon addition of 24 μl of 2% phosphoric acid to each well and the Minitrak was then used to transfer 40 μl from each well into the pre-wet Millipore 384-well P81 filter plates. Reaction mixtures were incubated for 10 minutes at room temperature in the P81 plates, followed by washing five times with 100 μl/well of 1% phosphoric acid using the Zoom filter washer. The bottom of each filter plate was sealed followed by addition of 20 μl Microscint 40 to each well, sealing the top of the plates with Flashplate cover, and then waiting one hour until reading on the TopCount (PerkinElmer).

The next test addresses T2, AAK1 (Homo sapiens, UniProt Q2M2I8).
T2 construct: expressed in transfected cells; host or cells: HEK293F
Put plainly: HEK281 cell-based assay (phospho-mu2 Western blot in transfected HEK293F cells). The note with it: HEK293F cells transfected with human AAK1 and AP2M1, 3 hours, read-out: CBA IC50. How it is done:
HEK293F cells were cultured in media containing DMEM (Gibco, cat. #11965), 10% FBS (SAFC Biosciences, cat. #12103C), 1×GPS (glutamine, penicillin and streptomycin). On day one, cells were plated on a 10 cm dish so that they are ˜80% confluent at time of transfection. Roughly 12 million cells were in a 10 cm dish at time of transfection. On day two, each dish was transfected with 48 ug DNA and 144 ul Lipofectamine 2000 (Invitrogen, cat.#11668-019). The DNA was comprised of a mixture (per 10 cm dish) containing 3 ug AAK1/HA/pIRES (full length human, NCBI accession no. NP_055726.2), 45 μg Flag/AP2MI/pcDNA (full length human), and 1.5 ml OPTI-MEM. The Lipofectamine 2000 is made up of a mixture (per 10 cm dish) containing 144 μl Lipofectamine 2000 and 1.5 ml OPTI-MEM. Each mixture was transferred to individual 15 ml tubes and incubated at room temperature for 5 minutes, and then the two mixes were combined and incubated at room temperature for 20 minutes. Growth media was then aspirated from each 10 cm plate and replaced with 10 ml of DMEM+10% FBS (no GPS). Finally, 3 ml DNA/Lipofectamine mix was added to each 10 cm dish and mix gently followed by incubate of plate overnight at 37° C. and 5% CO2.
On day three, compounds were diluted in 100% DMSO at 1000× final concentration, followed by 3-fold serial dilutions for a total of 5 concentrations tested. Four compounds were tested per 10 cm dish. One ul of each compound dilution was then pipetted into a deep-well, 96-well plate, followed by addition of 500 μl DMEM+0.5% FBS into each well for a 2× final concentration of each compound. Cells were resuspended in a 10 cm dish by simple pipetting (HEK293 cells come off the plate that easy at this point) and then transferred to a 50 ml conical tube and pelleted by centrifugation at 1000 rpm for 5 min. Cell pellets were then resuspended in 2.75 ml DMEM+0.5% FBS per 10 cm dish and 100 μl of cell suspension transferred into each well of 96-well TC plate. Finally, 100 μl of 2× compound diluted in DMEM+0.5% FBS was then added into wells containing cell suspension for a 1× final concentration. Plates were then incubated at 37° C. and 5% CO2 for 3 hours followed by transferring of cell suspensions from each well into 12-tube PCR strips. The PCR strips were spun in a tip rack at 1000 rpm for 5 minutes to pellet cells and media was then removed by pipetting without disturbing the cell pellet.
To prepare for Western Blot analysis, cell pellets were resuspend in 40 ul 1×LDS-PAGE sample buffer (Invitrogen, cat.# NP0008)+2× Halt phophatase and protease inhibitor cocktail (Thermo Scientific, cat.#1861284), followed by sonicating each with microtip sonicator set at 5 for 8-10 seconds. Five ul of 10× NuPage Sample Reducing Agent (with […]) was to each sample followed by heat denaturing at 70 C for 10 min on PCR machine. A total of 10 μl per sample was loaded into each lane of a 4-20% Tris-Glycine Criterion 26-well gel (Biorad, cat.#345-0034) for the phospho-mu2 blot and 10 μl per lane in a 4-12% Bis-Tris (+MES buffer) NuPAGE 26-well gel (Invitrogen, cat.# WG1403BX10) for the mu2 blot. For controls, 2 ng of phospho-mu2 or 20 ng mu2/Flag proteins were loaded in the last well of each gel. After SDS-PAGE, samples on each gel were transferred to PVDF membrane using an iBlot and membranes were blocked for one hour in TBST+5% milk, followed by wash 3× for 5-10 min with TBST. Criterion gels were probed with rabbit anti-phospho-mu2 (1:5000; a rabbit polyclonal antibody produced by New England Peptide and affinity purified at Lexicon) in TBST+5% BSA, whereas, NuPAGE gels were probed with mouse anti-Flag (1:500; Sigma, cat.# F1804) in TBST+5% milk, and these primary antibodies were incubated overnight at 4° C. on a rocker. […]

The next test concerns PC12 cells. The note with it: Kuai et al. 2011; cited from earlier work.

T1 sequence (Q2M2I8 1-863 isoform Q2M2I8-2): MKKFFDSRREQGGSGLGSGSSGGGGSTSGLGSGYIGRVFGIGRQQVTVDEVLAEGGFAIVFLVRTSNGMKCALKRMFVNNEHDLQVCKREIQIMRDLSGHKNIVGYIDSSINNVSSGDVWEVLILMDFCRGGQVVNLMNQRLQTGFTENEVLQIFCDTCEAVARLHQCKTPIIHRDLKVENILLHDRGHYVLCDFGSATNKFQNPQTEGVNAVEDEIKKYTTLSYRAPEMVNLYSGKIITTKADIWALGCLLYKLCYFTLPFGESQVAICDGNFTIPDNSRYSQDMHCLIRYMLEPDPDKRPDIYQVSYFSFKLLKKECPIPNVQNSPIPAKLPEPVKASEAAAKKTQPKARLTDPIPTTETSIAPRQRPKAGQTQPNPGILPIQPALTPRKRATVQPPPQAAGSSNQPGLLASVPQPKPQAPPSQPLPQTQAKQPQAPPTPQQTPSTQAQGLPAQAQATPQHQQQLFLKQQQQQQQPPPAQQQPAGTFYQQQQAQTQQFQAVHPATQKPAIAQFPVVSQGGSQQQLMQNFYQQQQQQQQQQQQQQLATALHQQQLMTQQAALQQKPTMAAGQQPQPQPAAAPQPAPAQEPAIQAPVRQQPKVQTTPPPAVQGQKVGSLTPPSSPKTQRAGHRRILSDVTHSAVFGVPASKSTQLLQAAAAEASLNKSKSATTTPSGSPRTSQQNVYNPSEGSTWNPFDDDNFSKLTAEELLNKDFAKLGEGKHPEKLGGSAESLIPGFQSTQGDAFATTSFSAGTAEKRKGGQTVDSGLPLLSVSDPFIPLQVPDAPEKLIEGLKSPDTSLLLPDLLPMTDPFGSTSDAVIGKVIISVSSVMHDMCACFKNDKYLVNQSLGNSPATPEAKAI
T2 sequence (Q2M2I8 1-863 isoform Q2M2I8-2): as above

As to `COc1nc(C)ccc1-c1cnn2ccc(-c3ccn(CCC(F)(F)F)c(=O)c3)nc12` [4-(3-(2-methoxy-6-methylpyridin-3-yl)pyrazolo[1,5-a]pyrimidin-5-yl)-1-(3,3,3-trifluoropropyl)pyridin-2(1H)-one], the concentration for half-maximal inhibition (IC50) (in general, the point on the concentration scale where inhibition reaches its midpoint) was no more than 100 nM in test [1] (class symbols) and no more than 10 nM at AAK1 (class symbols).

In the case of `COc1ncccc1-c1cnn2ccc(-c3ccn(CCN4CCOCC4)c(=O)c3)nc12` [4-(3-(2-methoxypyridin-3-yl)pyrazolo[1,5-a]pyrimidin-5-yl)-1-(2-morpholinoethyl)pyridin-2(1H)-one], the IC50 (in test [1] (class symbols); at AAK1 (class symbols)) was no more than 10 nM each time.

On to `COc1ncccc1-c1cnn2ccc(-c3ccn(CCC(F)(F)F)c(=O)c3)nc12` [4-(3-(2-methoxypyridin-3-yl)pyrazolo[1,5-a]pyrimidin-5-yl)-1-(3,3,3-trifluoropropyl)pyridin-2(1H)-one], for which the IC50 (in test [1] (class symbols); at AAK1 (class symbols)) was no more than 10 nM throughout.

On to `COc1ccc(F)cc1-c1cnn2ccc(-c3ccn(CCC(F)(F)F)c(=O)c3)nc12` [4-(3-(5-fluoro-2-methoxyphenyl)pyrazolo[1,5-a]pyrimidin-5-yl)-1-(3,3,3-trifluoropropyl)pyridin-2(1H)-one], for which the half-maximal inhibitory concentration (IC50) in test [1] (class symbols) is no more than 100 nM; on AAK1 (class symbols) it was no more than 10 nM.

For the compound `COc1ccc(F)cc1-c1cnn2ccc(-c3ccn(CC(C)C)c(=O)c3)nc12` [4-(3-(5-fluoro-2-methoxyphenyl)pyrazolo[1,5-a]pyrimidin-5-yl)-1-isobutylpyridin-2(1H)-one], the concentration for half-maximal inhibition (IC50) (in test [1] (class symbols); at AAK1 (class symbols)) was no more than 10 nM in each case.

Turning to `COc1ccc(F)cc1-c1cnn2ccc(-c3ccn(CCC(C)C)c(=O)c3)nc12` [4-(3-(5-fluoro-2-methoxyphenyl)pyrazolo[1,5-a]pyrimidin-5-yl)-1-isopentylpyridin-2(1H)-one], the IC50 (in test [1] (class symbols); at AAK1 (class symbols)) was no more than 10 nM each time.

`COc1ncc(F)cc1-c1cnn2ccc(-c3ccn(CCC(F)(F)F)c(=O)c3)nc12` [4-(3-(5-fluoro-2-methoxypyridin-3-yl)pyrazolo[1,5-a]pyrimidin-5-yl)-1-(3,3,3-trifluoropropyl)pyridin-2(1H)-one]: the IC50 (in test [1] (class symbols); on AAK1 (class symbols)) was no more than 10 nM in each case.

For the compound `COc1ncc(F)cc1-c1cnn2ccc(-c3ccn(CCC(C)C)c(=O)c3)nc12` [4-(3-(5-fluoro-2-methoxypyridin-3-yl)pyrazolo[1,5-a]pyrimidin-5-yl)-1-isopentylpyridin-2(1H)-one], the IC50 (in test [1] (class symbols); at AAK1 (class symbols)) was no more than 10 nM throughout.

`CC(C)CCn1ccc(-c2ccn3ncc(Br)c3n2)cc1=O` [4-(3-bromopyrazolo[1,5-a]pyrimidin-5-yl)-1-isopentylpyridin-2(1H)-one]: the 50% inhibitory concentration (IC50) (in test [1] (class symbols); on AAK1 (class symbols)) was no more than 10 nM in each case.

Take `CC(C)CCn1ccc(-c2ccn3ncc(Cl)c3n2)cc1=O` [4-(3-chloropyrazolo[1,5-a]pyrimidin-5-yl)-1-isopentylpyridin-2(1H)-one]: the IC50 was no more than 100 nM in test [1] (class symbols) and no more than 10 nM at AAK1 (class symbols).

On to `CC(C)CCn1ccc(-c2ccn3ncc(I)c3n2)cc1=O` [4-(3-iodopyrazolo[1,5-a]pyrimidin-5-yl)-1-isopentylpyridin-2(1H)-one], for which the 50% inhibitory concentration (IC50) (in test [1] (class symbols); at AAK1 (class symbols)) was no more than 10 nM in each case.

Consider `COc1ncccc1-c1cnn2ccc(-c3ccnc(OC(C)C)c3)nc12` [5-(2-isopropoxypyridin-4-yl)-3-(2-methoxypyridin-3-yl)pyrazolo[1,5-a]pyrimidine], for which the figures for the IC50 (in test [1] (class symbols); at AAK1 (class symbols)) were no more than 100 nM and no more than 10 nM, respectively.

For `COC(=O)[C@@]1(O)C[C@H]2O[C@]1(C)n1c3ccccc3c3c4c(c5c6ccccc6n2c5c31)C(=O)NC4` [K252a], the “Effect on Neuregulin-1 induced neurite outgrowth” value in the test with PC12 cells is on record as “potentiation of Neuregulin-1 induced neurite outgrowth”.

On to `COc1ncccc1-c1cnn2ccc(C3=CCN(C(=O)OC(C)C)CC3)nc12` [isopropyl 4-(3-(2-methoxypyridin-3-yl)pyrazolo[1,5-a]pyrimidin-5-yl)-5,6-dihydropyridine-1(2H)-carboxylate], for which the concentration for half-maximal inhibition (IC50) (in test [1] (class symbols); on AAK1 (class symbols)) was no more than 10 nM in each case.

On to `COc1ncccc1-c1cnn2ccc(C3CCN(C(=O)OC(C)C)CC3)nc12` [isopropyl 4-(3-(2-methoxypyridin-3-yl)pyrazolo[1,5-a]pyrimidin-5-yl)piperidine-1-carboxylate], for which the IC50 is greater than 300 nM in test [1] (numeric bounds) and no more than 10 nM on AAK1 (class symbols).

As for `CC(C)OC(=O)N(C)CCCc1ccn2nccc2n1` [isopropyl methyl(3-(pyrazolo[1,5-a]pyrimidin-5-yl)propyl)carbamate], the results for the 50% inhibitory concentration (IC50) (in test [1] (numeric bounds); on AAK1 (numeric bounds)) were greater than 100 nM and greater than 300 nM, respectively.
